The test system of one experiment is HeLa cells. The experiment can be described thus: Apoptosis, Annexin V-FITC/PI FACS, HeLa. It is filed as cell-based, human. As to conditions: at IC50, 72 h, FIG. 8. How it is done:
Assessment of apoptosis was performed 72 h after treatment with derivatives at their IC50. Briefly, the same number of HepG2, HeLa, Jurkat and Chang liver cells as in the cell cycle assay were treated with compounds 20, 44, 46 and betulinic acid 2, as described above. Cells were collected washed once in ice-sold binding buffer (10 mM HEPES/NaOH, pH 7.4, 140 mM NaCl, 2.5 mM CaCl2) and ressuspended in the same buffer (95 μl) at a maximum, of 8×10^5 cells/ml. Annexin V-FITC conjugate (1 μg/ml) was added and incubated for 30 min at room temperature in darkness. Just before FACS analysis, cells were stained with 20 μl of […]. Approximately 1×10^4 cells were analysed for each histogram and experiments were performed three times with triplicates per experiment. FACS analysis using Annexin V-FITC staining and PI accumulation was used to differentiate early apoptotic cells (Annexin V^+ and PI^−) from necrotic or late apoptotic cells (Annexin V^+ and PI^+). […] In comparison with untreated controls, compound 44 treatment of HepG2 cells generated apoptosis in 53% of cells (42% of early apoptosis and 11% of late apoptosis), compound 46 generated apoptosis in 38% of cells (28% of early apoptosis plus 10% late apoptosis) and compound 20 induced apoptosis in 29% of cells (22% of early apoptosis plus 7% late apoptosis) (FIG. 8).

A further experiment has as its system HepG2 cells. The experiment can be described thus: Cell cycle analysis by flow cytometry (FACS, PI), HepG2. It is filed as cell-based, human. The note with it: for Phase of cell cycle (% of cells) G0/G1 / Phase of cell cycle (% of cells) G2/M / Phase of cell cycle (% of cells) S: HepG2, compound at its IC50, 72 h; for decrease in the percentage of cells in the G0/G1 phase / increase in the population in S phase: HepG2, with respect to untreated cells, at IC50, 72 h. How it is done:
The effects on the cell cycle of some of these compounds were assessed through flow cytometry by using a fluorescence-activated cell sorter (FACS) (Table 5 below). For this assay 2.3×10^5 HepG2 cells/well, 2.9×10^4 HeLa cells/well, 1.6×10^5 Jurkat cells/well and 1.4×10^5 Chang liver cells/well were plated in 6 well plates with 2 ml of medium. The number of cells was determined by the relationship number of cells/area wells, considering the number of cells that were cultured in 96-well plates. […] Chang liver cells were incubated with compounds 20, […] at concentrations corresponding to the IC80 determined for HepG2 at 72 h. Following 72 h. of incubation, cells were harvested by mild trypsinization, collected by centrifugation and stained in ice-cold Tris-buffered saline (TBS), containing 1 mg/ml PI, 10 mg/ml RNAse free of DNAase and 0.1% Igepal CA-630 for 1 h at 4° C. FACS analysis was carried out at 488 nm in an Epics XL flow cytometer (Coulter Corporation, Hialeah, Fla.). Data from 8×10^3 cells were collected and analyzed using Multicycle program (Phoenix Flow Systems, San Diego, Calif.). All experiments were performed three times with three replicates per experiment. […] To explore the selectivity of the effect on tumor cells, we also tested compounds 20, 44 and 46 in a non-malignant cell line. Chang liver cells were treated with the compounds at the IC80 values determined for HepG2 after 72 h of incubation and no effect was observed, indicating a selective effect of these agents (Table 5 below).
On the technique in general: A flow cytometer gives signals particle by particle.

Experiment [1] relates to HepG2 (human hepatocellular carcinoma). In words: Cytotoxic activity, MTT assay, HepG2. Type of experiment: cell-based. The note with it: 72 h, mean ±SD. Summed up: (§1)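 HepG2, HeLa and Chang liver cells (8×10^3, 1×10^3, 5×10^3 cells/well) pre-grown 24 h, treated 72 h in triplicate (DMSO <0.1%), MTT 0.5 mg/ml 1 h, read 550 nm. Jurkat (5.5×10^3 cells/well) treated 72 h, XTT 4 h, read 450 nm. IC50 as mean±SD of at least three experiments.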
(Tetrazolium dyes change colour on reduction, which living cells bring about.)

Another experiment deals with Chang liver cells. In words: Cell cycle analysis by flow cytometry (FACS, PI), Chang liver. It is filed as cell-based, human. As to conditions: for effect on cell cycle in non-malignant cell line: IC80 values determined for HepG2, 72 h; for Phase of cell cycle (% of cells) G0/G1 / Phase of cell cycle (% of cells) G2/M / Phase of cell cycle (% of cells) S: compound at IC80 determined for HepG2, 72 h. On the procedure:
The effects on the cell cycle of some of these compounds were assessed through flow cytometry by using a fluorescence-activated cell sorter (FACS) (Table 5 below). For this assay 2.3×10^5 HepG2 cells/well, 2.9×10^4 HeLa cells/well, 1.6×10^5 Jurkat cells/well and 1.4×10^5 Chang liver cells/well were plated in 6 well plates with 2 ml of medium. The number of cells was determined by the relationship number of cells/area wells, considering the number of cells that were cultured in 96-well plates. […] Following 72 h. of incubation, cells were harvested by mild trypsinization, collected by centrifugation and stained in ice-cold Tris-buffered saline (TBS), containing 1 mg/ml PI, 10 mg/ml RNAse free of DNAase and 0.1% Igepal CA-630 for 1 h at 4° C. FACS analysis was carried out at 488 nm in an Epics XL flow cytometer (Coulter Corporation, Hialeah, Fla.). Data from 8×10^3 cells were collected and analyzed using Multicycle program (Phoenix Flow Systems, San Diego, Calif.). All experiments were performed three times with three replicates per experiment. […] To explore the selectivity of the effect on tumor cells, we also tested compounds 20, 44 and 46 in a non-malignant cell line.

A further experiment relates to Jurkat (human leukemia). In words: Cytotoxic activity, XTT assay, Jurkat. Type of experiment: cell-based. The note with it: 72 h, mean ±SD. Summed up: as §1

Molecules are shown by their SMILES.

A word on the IC50: it is the concentration that gives 50% inhibition. A higher IC50 goes with weaker potency. As to `C=C(C)[C@@H]1CC[C@]2(C(=O)n3ccnc3)CC[C@]3(C)[C@H](CC[C@@H]4[C@@]5(C)CCC(=O)C(C)(C)[C@@H]5CC[C@]43C)[C@@H]12` [Compound 44, 28-(1H-imidazol-1-yl)-lup-20(29)-en-3,28-dione], in the experiment with HeLa cells, the “effectiveness at inducing apoptosis” value is “most effective”. In addition, in the experiment with HepG2 cells, the “Phase of cell cycle (% of cells) G0/G1” value is recorded as 45.6 ± 2.1 % of cells, the “Phase of cell cycle (% of cells) G2/M” value is 14.9 ± 1.4 % of cells, the “Phase of cell cycle (% of cells) S” value was 39.6 ± 3.6 % of cells and the “decrease in the percentage of cells in the G0/G1 phase” value (from here on “decrease in the percentage of cells”) came to 16%. Also, the “increase in the population in S phase” value in the experiment with HepG2 cells turned out to be 20%. This molecule gave a half-inhibitory concentration (IC50) in experiment [1] of 0.8 ± 0.05 µM. For the same molecule, in the experiment with Chang liver cells, the “effect on cell cycle in non-malignant cell line” value is “no effect”, the “Phase of cell cycle (% of cells) G0/G1” value is 68.2 ± 2.9 % of cells, the “Phase of cell cycle (% of cells) G2/M” value is 8.6 ± 0.8 % of cells and the “Phase of cell cycle (% of cells) S” value is on record as 23.2 ± 2.5 % of cells. The IC50 in the experiment with Jurkat (human leukemia) was determined as 1.4 ± 0.2 µM.

`C=C(C)[C@@H]1CC[C@]2(C(=O)n3ccnc3)CC[C@]3(C)[C@H](CC[C@@H]4[C@@]5(C)C=CC(=O)C(C)(C)[C@@H]5CC[C@]43C)[C@@H]12` [Compound 46, 28-(1H-imidazol-1-yl)-lup-1,20 (29)-dien-3,28-dione]: the “effectiveness at inducing apoptosis” value in the experiment on HeLa cells is “extremely effective”. Further, in the experiment on HepG2 cells, the “Phase of cell cycle (% of cells) G0/G1” value is listed as 54.7 ± 1.5 % of cells, the “Phase of cell cycle (% of cells) G2/M” value was 14.3 ± 1.0 % of cells, the “Phase of cell cycle (% of cells) S” value was 30.7 ± 0.6 % of cells and the “decrease in the percentage of cells” value is given as 7%. In addition, the “increase in the population in S phase” value in the experiment on HepG2 cells is on record as 12%. The same molecule came in with an IC50 in experiment [1] of 1.7 ± 0.2 µM. In the experiment on Chang liver cells, the “effect on cell cycle in non-malignant cell line” value is “no effect”, the “Phase of cell cycle (% of cells) G0/G1” value is 68.2 ± 4.9 % of cells, the “Phase of cell cycle (% of cells) G2/M” value is recorded as 9.2 ± 1.4 % of cells and the “Phase of cell cycle (% of cells) S” value was 22.6 ± 3.8 % of cells. This molecule displayed an IC50 in the experiment on Jurkat (human leukemia) of 2.3 ± 0.3 µM.

For `C=C(C)[C@@H]1CC[C@]2(CO)CC[C@]3(C)[C@H](CC[C@@H]4[C@@]5(C)CC[C@H](OC(=O)n6ccnc6)C(C)(C)[C@@H]5CC[C@]43C)[C@@H]12` [Compound 20, 28-hydroxy-lup-20(29)-en-3β-yl-1H-imidazole-1-carboxylate], the “effectiveness at inducing apoptosis” value in the experiment on HeLa cells is recorded as “extremely effective”. For the same molecule, in the experiment with HepG2 cells, the “Phase of cell cycle (% of cells) G0/G1” value is on record as 49.4 ± 1.2 % of cells, the “Phase of cell cycle (% of cells) G2/M” value is 14.5 ± 0.8 % of cells, the “Phase of cell cycle (% of cells) S” value is recorded as 36.1 ± 0.8 % of cells and the “decrease in the percentage of cells” value turned out to be 12%. Moreover, the “increase in the population in S phase” value in the experiment with HepG2 cells stood at 17%. Further, the IC50 in experiment [1] worked out at 2 ± 0.4 µM. Moreover, in the experiment on Chang liver cells, the “effect on cell cycle in non-malignant cell line” value is reported as “no effect”, the “Phase of cell cycle (% of cells) G0/G1” value was 68.6 ± 4.2 % of cells, the “Phase of cell cycle (% of cells) G2/M” value was 9.3 ± 1.3 % of cells and the “Phase of cell cycle (% of cells) S” value is reported as 22.0 ± 3.0 % of cells. The IC50 in the experiment with Jurkat (human leukemia) was 11.1 ± 1.3 µM.

The values are drawn from patent publication US8969395B2, “Triterpenoid derivatives useful as antiproliferative agents” (Universidade de Coimbra, priority 2009, dated 2015).
